Assay results published in patent US20050202111A1, “Anti-Parkinson's disease pharmaceutical and method of use” (priority 2004, published 2005).

Columns and labels:
mitochondrial complex-I = assay: In vivo effect on brain mitochondrial complex-I activity (NADH oxidation); parameters: species or system Sprague Dawley rats; settings: intraperitoneally for 2 weeks, brain mitochondrial (P2) fraction
Procedure: Various doses of MPX were administered intraperitoneally to Sprague Dawley rats for 2 weeks, while a control group was treated with saline. The rats were sacrificed one hour after the last injection, and the mitochondrial (P2) fraction was prepared from the dissected rat brains. Mitochondrial complex-I activity was based on the oxidation of NADH (5.6 mg in 1 ml water) measured at 340 nm (Ramsay et al. 1986. “Inhibition of mitochondrial NADH dehydrogenase by pyridine derivatives and its possible relation to experimental and idiopathic parkinsonism,” Biochem Biophys Res Commun 135:269-275 (this references is hereby incorporated by reference in its entirety)).

[1] = system: N-methyl-4-phenyl-1,2,3,6-tetrahydropyridine induced dopaminergic neurodegeneration; settings: in vivo; cited from earlier work
complex-I = settings: mouse, in vivo; cited from earlier work

SMILES: N[C@@H](Cc1ccc(O)c(O)c1)C(=O)O [Levodopa, L-3,4-dihydroxyphenylalanine]
- mitochondrial complex-I activity (mitochondrial complex-I): significantly inhibitory effect on complex-I

SMILES: O=C(O[C@@H]1Cc2c(O)cc(O)cc2O[C@@H]1c1cc(O)c(O)c(O)c1)c1cc(O)c(O)c(O)c1 [(−)-epigallocatechin-3-gallate]
- dopaminergic neurodegeneration [1]: prevents N-methyl-4-phenyl-1,2,3,6-tetrahydropyridine induced dopaminergic neurodegeneration

SMILES: CC(=O)N[C@@H](CS)C(=O)O [N-acetylcysteine]
- age-related decrease in complex-I activity (complex-I): can protect against age-related decrease in complex-I activity
